Experimental data published in PMC7992063 (ACS Omega, 2021).
“Also recorded” adds a separate entry of the source. Like-named read-outs stand apart in the source and are kept apart here.

Experiments:
spike RBD = conditions: read-out: affinity for spike RBD; cited from earlier work
SARS-CoV-2 [1] = type: cell-based
in vitro [2] = conditions: human
SARS-CoV-2 [3] = type: cell-based; remark: listed apart in the source
EBOV glycoprotein = conditions: cited from earlier work
[4] = test system: SARS-CoV-2 (isolate USA WA1/2020); assay: microbe, parasite or virus in culture; type: cell-based; conditions: for IC50: Severe acute respiratory syndrome coronavirus 2, Calu-3, read-out: IC50 (EC50), infection (dsRNA+ cells/total cell number)
in vitro [5] = conditions: African green monkey
rVSV-SARS-CoV-2 S = type: cell-based
[6] = test system: SARS-CoV-2 (Strain USA_WA1/2020); assay: microbe, parasite or virus in culture; type: cell-based
lysosomal pH = conditions: read-out: IC50, lysosomotropic; cited from earlier work
SARS-CoV-2-nLuc = assay: microbe, parasite or virus in culture; type: cell-based; conditions: Severe acute respiratory syndrome coronavirus 2, A549-ACE2
[7] = target: SARS-CoV-2 spike receptor binding domain (RBD) (Severe acute respiratory syndrome coronavirus 2, UniProt P0DTC2)
HCoV 229E = type: cell-based, human coronavirus 229E
SARS-CoV-2 [8] = assay: microbe, parasite or virus in culture; type: cell-based
[9] = test system: murine hepatitis virus (MHV); assay: microbe, parasite or virus in culture; type: cell-based; conditions: Murine coronavirus
[10] = test system: SARS-CoV-2 (Strain USA_WA1/2020); assay: microbe, parasite or virus in culture; type: cell-based; conditions: Severe acute respiratory syndrome coronavirus 2, Caco-2, 72 h
SARS-CoV-2 [11] = conditions: cited from earlier work
Vero 76 cells = conditions: African green monkey
Vero cells = conditions: cited from earlier work
Calu-3 cells = conditions: cited from earlier work
SARS-CoV-2 [12] = type: cell-based; conditions: 10 μM; 24 h
SARS-CoV-2 [13] = conditions: cited from earlier work; remark: listed apart in the source
SARS-CoV-2 pseudovirus = conditions: mouse, in vivo; cited from earlier work
[14] = Severe acute respiratory syndrome coronavirus 2, Vero 76

| Compound | CC50 (in vitro [2]) [µM] | activity against SARS-CoV-2 in Vero E6 (SARS-CoV-2 [3]) | Kd (EBOV glycoprotein) [µM] | IC50 [4] [µM] | CC50 (in vitro [5]) [µM] | activity in VSV-pseudotype neutralization assay (rVSV-SARS-CoV-2 S) | neutralization (rVSV-SARS-CoV-2 S) [%] | EC50 [6, 14] [µM] | IC50 (SARS-CoV-2-nLuc) [µM] | weaker affinity for spike RBD compared to ACE2 [7] | IC50 [9] [µM] | EC90 [10] [µM] | CC50 (Vero 76 cells) [µM] | activity against SARS-CoV-2 in Calu-3 [4] | EC50 [6] [µM] | activity against SARS-CoV-2 in Vero 76 [6] | decrease of virus titer (HCoV 229E) [logTCID50/mL] | also measured |
| --- | --- | --- | --- | --- | --- | --- | --- | --- | --- | --- | --- | --- | --- | --- | --- | --- | --- | --- |
| ACE2 |  |  |  |  |  |  |  |  |  |  |  |  |  |  |  |  |  | Kd (spike RBD): ~0.015 µM |
| CCN(CC)CCOc1ccc2c(c1)C(=O)c1cc(OCCN(CC)CC)ccc1-2 [tilorone] | 111 | no inhibition | 0.73 | 10.8 | 49.6 | no measurable activity | < 50 | 6.62 | 0.18 | 20–40 times | ~20 | 29 |  |  |  |  |  | antiviral activity (SARS-CoV-2 [1]): did not show antiviral activity; IC50 (lysosomal pH): ~4 µM; inhibition of HCoV-229E (HCoV 229E): did not show significant inhibition; IC50 (SARS-CoV-2 [8]; Severe acute respiratory syndrome coronavirus 2, Calu-3, 48 h): ~9 µM; IC50 (SARS-CoV-2 [11]): 4 µM |
| COc1ccc2nc3cc(Cl)ccc3c(Nc3cc(CN4CCCC4)c(O)c(CN4CCCC4)c3)c2n1 [pyronaridine, 4-[(7-chloro-2-methoxybenzo[b][1,5]naphthyridin-10-yl)amino]-2,6-bis(1-pyrrolidinylmethyl)phenol phosphate (1:4)] | 51.6 | no activity; also recorded: no inhibition | 7.34 |  | 3.52 | no measurable activity | < 50 | > 3.52 | 0.198 | 20–40 times | 2.75 | 5.49 | 3.85 | no activity | > 3.85 | no activity | 2.83 | CC50 (Vero cells): 37.1 µM; CC50 (Calu-3 cells): 43.1 µM |
| CCC(CC)COC(=O)[C@H](C)N[P@](=O)(OC[C@H]1O[C@@](C#N)(c2ccc3c(N)ncnn23)[C@H](O)[C@@H]1O)Oc1ccccc1 [remdesivir] |  |  |  | 0.016 |  |  |  |  |  |  |  |  |  |  |  |  |  | inhibition of SARS-CoV-2, cell-associated viral RNA levels (SARS-CoV-2 [12]): ~50%; inhibition at 0.6 µM (SARS-CoV-2 [8]; Severe acute respiratory syndrome coronavirus 2, Calu-3, read-out: inhibition PFU/mL): ~100% |
| CCN(CC)CCCC(C)Nc1c2ccc(Cl)cc2nc2ccc(OC)cc12 (stereo not shown) [quinacrine] | 229 | no in vitro activity; also recorded: no inhibition | 7.55 |  | 7.33 |  |  | > 7.33 | < 0.2 |  | 2.3 | 10.5 | 6.87 | no in vitro activity | > 6.87 | no in vitro activity | 3.9 | EC50 (SARS-CoV-2 [13]): 2.83 µM; binding to spike RBD [7]: did not demonstrate reproducible binding; infected cells (SARS-CoV-2 pseudovirus): significant decrease |
